Results published in US4616010A, “Imidazodiazepine derivatives” (Hoffmann-La Roche Inc., priority 1985, dated 1986).

Experiments:
[1] = target: central benzodiazepine receptors; experiment: inhibition of the binding of tritiated diazepam at the specific benzodiazepine receptors in the cerebral cortex
Description: The affinity of compounds of formula I to the central benzodiazepine receptors has been determined according to the method described in Life Science 20, 2101-2110 (1977) and Science 198, 849-851 (1977). According to this method, the inhibition of the binding of tritiated diazepam at the specific benzodiazepine receptors in the cerebral cortex by the respective test substances is ascertained. The IC50 ("50% inhibiting concentration") is that concentration of the respective test substance which brings about a 50 percent inhibition of the specific binding of the tritiated diazepam at the specific benzodiazepine receptors in the cerebral cortex.

[2] = acute toxicity, single oral administration to mice; conditions: mouse, in vivo
Description: The results obtained with representative members of the class of compounds defined by formula I in the experiments described previously are compiled in the following Table. Moreover, the Table contains data concerning the acute toxicity of some of these compounds (LD50 in mg/kg in the case of single oral administration to mice).

[3] = test system: spasmodic seizures caused by pentetrazole; experiment: antipentetrazole test (anticonvulsant activity); assay type: in vivo; conditions: Rattus norvegicus, po; female rats 60-80 g; compound orally 30 min before pentetrazole 120 mg/kg i.p.; dose protecting 50%, Probit method
Method: The central properties of the compounds of formula I in accordance with the invention can be determined, for example, in the antipentetrazole test described hereinafter, which is generally recognized for recording anticonvulsant properties.
In this animal experiment, the compound under investigation is administered orally to female rats weighing 60-80 g and 30 minutes later there are administered i.p. 120 mg/kg of pentetrazole, which causes emprosthotonus and tonic stretchings of the fore and/or hind limbs in unprotected experimental animals 1-4 minutes after the injection. Ten experimental animals are used per dosage of test substance. After counting the protected experimental animals, the ED50 is determined according to the Probit method. The ED50 is that dosage which protects 50% of the experimental animals from the spasmodic seizures caused by pentetrazole.

SMILES	IC50 [1]	LD50 [2]	ED50 [3]
O=C1c2c(Cl)cccc2-n2cnc(-c3cccc(Cl)c3)c2[C@@H]2CCCN12 [A]	4.2 nM	2500 to 5000 mg/kg	2.1 mg/kg
O=C1c2c(Cl)cccc2-n2cnc(-c3cccc(C(F)(F)F)c3)c2[C@@H]2CCCN12 [B, (S)-8-chloro-11,12,13,13a-tetrahydro-1-(α,α,α-trifluoro-m-tolyl)-9H-imidazo[1,5-a]pyrrolo[2,1-c][1,4]benzodiazepin-9-one]	40 nM	2500 to 5000 mg/kg	4 mg/kg
